Laboratory results reported in patent publication US20140088039A1, “OPHTHALMIC SOLUTION CONTAINING HYALURONIC ACID OR SALT THEREOF AND PROPYLENE GLYCOL” (priority 2011, published 2014).

Tested on: SV40 immortalized human corneal epithelial cells (HCE-T)
Assay: Evaluation test of protective effect on corneal epithelial cell (drying load)
Assay type: cell-based
Conditions: 1 h pre-culture with 0.25% (w/v) propylene glycol and/or 0.03% (w/v) sodium hyaluronate, dried 7.5 minutes, FIG. 1
Description: SV40 immortalized human corneal epithelial cells: (HCE-T: RIKEN BioResource Center, Japan, Cell No.: RCB2280) were seeded to a 96-well plate (1×10^4 cells/well) and cultured for one day in an SHEM culture medium. On the next day, the culture medium was replaced with a D-MEM/F12 culture medium containing 0.25% (w/v) propylene glycol, 0.03% (w/v) sodium hyaluronate, or 0.25% (w/v) propylene glycol and 0.03% (w/v) sodium hyaluronate, and thereafter the corneal epithelial cells were cultured for one hour (hereinafter, each also referred to as a “propylene glycol alone group,” a “hyaluronic acid alone group,” or a “propylene glycol/hyaluronic acid combination group”). It is noted that a group that a culture medium was replaced with a D-MEM/F12 culture medium not containing a tested substance and thereafter the corneal epithelial cells were cultured for one hour was defined as a “vehicle group”. After culture, a culture medium of each group was replaced with a D-MEM/F12 culture medium not containing a tested substance and then cells were dried for 7.5 minutes. After drying load, cell viability was measured using Cell Proliferation Assay Kit (manufactured by Promega, catalogue No.: G3580) (corresponding to absorbance of 490 nm).

Compound	Suppression of decrease in cell viability of corneal epithelial cells due to drying load
sodium hyaluronate [hyaluronic acid]	not sufficiently suppressed
CC(O)CO (centres unmarked) [propylene glycol]	not sufficiently suppressed
